Results taken from PMC9513234, “Synthesis and Biological Evaluation of Termini-Modified and Cyclic Variants of the Connexin43 Inhibitor Peptide5” (Frontiers in Chemistry, 2022).
“Also recorded” adds a separate entry of the source. Where a SMILES comes first, the peptide text is derived from it. Bridges are numbered along the chain shown (N, C = ends). [ ]: non-standard residue; d: D form. The star is where a group is joined. AllylGly = C=CC[C@H](N)C(=O)O; Ethoxycarbonyl = CCOC(=O)*; Butyryl = CCCC(=O)*; Bz = O=C(c1ccccc1)*; N3 = azide

Tests used:
[1] = test system: gap junctions in hCMVEC cells; conditions: 100 µM; for LY dye spread (number of LY-positive cells) as percentage of untreated control: mean ± SEM
Procedure: We next investigated the ability of peptide5 variants to inhibit gap junctional communication using a scrape loading assay. In this assay, the cells in culture are loaded with a dye (Lucifer Yellow dilithium salt (LY), M.W. 457.25 Da) of molecular size (<1 kDa) that is able to transit through the gap junctions and the degree of dye spread is then measured by counting the number of cells that contain LY (Supplementary Material, Method 4) ^1. Consistent with our previous study, peptide5 (1) and Cbx reduced the degree of dye spread following incubation with LY (56.16 ± 2.1%; p < 0.0001 and 16.2 ± 1.1%; p < 0.0001, respectively) compared to the untreated controls (Figure 12).
(§1) Human cerebral microvascular endothelial cells (hCMVEC) were purchased from Applied Biological Materials (ABM) Inc, Canada (cat # T0259) (O'Carroll et al., 2015). Cells were cultured in 1 μg/cm^2 collagen I (Gibco) coated T75 flasks from Corning (NY, USA). The growth media was M199 media (Gibco), supplemented with 10% FBS, 1 μg/mL hydrocortisone (Sigma), 3 μg/mL human FGF (Peprotech), 10 μg/mL human EGF (Peprotech), 10 μg/mL heparin (Sigma), 2 mM Glutamax (Gibco), and 80 μM butyryl cAMP (Sigma).
For experiments hCMVECs cells were plated M199 media at a density of 4 x 10^5 cells per well in a collagen coated (1 µg/cm^2) 12-well plate the day prior to the experiment to ensure a confluent monolayer of hCMVECs. On the day of the experiment cells were pre-incubated in carbenoxolone, (100 µM) Peptide5 (5–100 µM) or modified analogues (100 µM) or M199 as a negative control. Cells were washed three times with phosphate buffered saline (PBS) without Ca^2+ or Mg^2+ and incubated in 0.05% Lucifer Yellow (LY) (Sigma), a fluorescent dye that is transferred through coupled gap junction channels (el-Fouly, Trosko, & Chang, 1987), and scrape-wounded with a size 10 carbon steel surgical blade (Swann-Morton, England). Following a 5 minute incubation at 37 °C in 95% O2 and 5% CO2 without light, the 0.05% LY solution was removed. Cells were rinsed four times with HBSS containing Ca^2+ ^+, and then fixed in 4% paraformaldehyde (PFA) in PBS at pH 7.4 for 10 minutes at room temperature. Cells were then washed 3 times in PBS to remove PFA before fluorescent imaging. Fluorescent images were visualized using a Nikon TE2000E inverted fluorescent microscope (10x magnification, 0.3 numerical aperture), and captured using a Digital Sight CCD camera and Eclipse Net software (Nikon). Three images within each well from three independent experiments were taken for analysis, and the total number of cells showing dye uptake from those that had been loaded were counted manually by masked observers. Each peptide was tested in at least an n of 2 separate experiments.

[2] = molecular target: T1, Cx43 hemichannel (Homo sapiens, UniProt P17302); experiment: HAIR ischemic injury-induced ATP release (hemichannel) assay, bioluminescence; format: cell-based; conditions: hCMVEC cells, 2 h in HAIR solution, 100 µM; for ATP release compared to HAIR control (result in words) / ATP release compared to peptide5 (result in words): one-way ANOVA, Dunnett; for ATP release over untreated HAIR controls: mean ± SEM
T1 construct: ischemic injury–induced ATP release from hCMVEC cells in vitro; host or cells: hCMVEC (human cerebral microvascular endothelial cells)
T1 sequence (P17302 whole entry): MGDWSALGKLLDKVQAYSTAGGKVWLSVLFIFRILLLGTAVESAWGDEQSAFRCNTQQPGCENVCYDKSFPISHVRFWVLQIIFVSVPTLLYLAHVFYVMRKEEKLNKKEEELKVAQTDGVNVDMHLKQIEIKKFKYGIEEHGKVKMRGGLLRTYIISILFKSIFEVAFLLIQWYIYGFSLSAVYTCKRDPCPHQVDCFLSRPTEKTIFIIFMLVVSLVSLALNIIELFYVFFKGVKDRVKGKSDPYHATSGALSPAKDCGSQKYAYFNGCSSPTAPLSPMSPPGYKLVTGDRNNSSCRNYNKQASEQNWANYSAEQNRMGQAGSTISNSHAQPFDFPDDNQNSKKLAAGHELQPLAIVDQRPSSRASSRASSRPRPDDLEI
Procedure: To test the effect of the peptide modifications on peptide5 (1) activity against hemichannels, a model of ischemic insult on a cell culture model of the brain microvasculature was used to induce Cx43 hemichannel opening and ATP release (Supplementary Material, Method 4). The cells were incubated in hypoxic-acidic ion-shifted ringers (HAIR) solution to generate disrupted pH and ion balance leading to ATP leak from the cells, which can be sampled and quantified luminometrically using a commercially available firefly luciferase assay (Molecular Probes).
as §1
For experiments hCMVECs were plated in M199 media at a density of 2.5 x 10^4 cells per well in a collagen-coated (1 µg/cm^2) 12-well plate the day prior to the experiment. Hypoxic, acidic, ion-shifted Ringer (HAIR) injury solution that mimics ionic concentrations and acid-base shifts of the interstitial space in hypoxic-ischemic brains (Bondarenko & Chesler, 2001) was used to trigger hemichannel opening as described previously (Kim et al., 2017). HAIR solution (38 mM NaCl, 13 mM NaHCO3, 3 mM Na-gluconate, 65 mM K-gluconate, 38 mM NMDG-Cl, 1 mM NaH2PO4, and 1.5 mM MgCl2) was bubbled in 95% N2, 5% CO2 gas (20 L/min) for 5 minutes and pH adjusted to 6.6 before use. To induce ischemic, cells were incubated for 2 hours in 500 µL HAIR solution +/- carbenoxolone (100 µM), Peptide5 or modified analogues (100 µM). For the negative control, hCMVEC cells were incubated for 2 hours in 500 µL standard Ringer solution 124 mM NaCl, 3 mM KCl, 26 mM NaHCO3, […], 1 mM NaH2PO4, 1.3 mM CaCl2, 1.5 MgCl2, and 10 mM glucose) adjusted to pH 7.4 before use. All incubations were carried out at 37 °C in 95% O2 and 5% CO2. At the end of each experiment, samples were removed and immediately placed on ice. The concentration of ATP in the samples was determined using a luciferin/luciferase bioluminescence reaction (ATP Determination Kit, Molecular Probes) and detected using a luminescence plate reader (FLUOStar OPTIMA FL, BMG Labtech). Standard curves were generated for each experiment from an ATP standard (0 to 500 nM) and used to convert bioluminescence units to ATP concentration. […] Only readings in the plateau phase of the reaction were included in averaging for the well value. Each peptide was tested in at least an n of 2 separate experiments.

[3] = Human serum stability assay (RP-HPLC); conditions: for stability in human serum (result in words): 25% aq. human serum, 37°C, 48 h
Procedure: We then evaluated the N-methylated variants 7 and 8, D amino acid variants 9 and 10, and the two carbo cyclic peptides 39 and 42. Each peptide was incubated with 25% aq. human serum at 37°C, and 6 aliquots were extracted within 48 h. The stability of each peptide upon exposure to human serum was then analyzed via analytical RP HPLC, and the amount of peptide still present at each time point was recorded relative to t = 0 h.
Whole blood was collected from a healthy volunteer and stored in a covered test tube and was allowed to clot by leaving it undisturbed at r.t. for ca. 1 h. The clot was removed by centrifugation at 1,000-2,000 x g for 10 min and the resulting supernatant was designated as the serum. The serum was collected and stored in 0.5 mL aliquots, whereby the samples were stored at - 20 °C.
200 µM concentration of peptide was incubated in 25% aq. human serum (1.7 mL) and left to shake at 37 °C. Aliquots of human serum-peptide mixture (270 µL) were taken at given times (0 h, 1 h, 4 h, 8 h, 24 h, and 48 h) and threefold excess of acetonitrile (810 µL) was added to the aliquot and left for 1 h at 0 °C. The samples underwent centrifugation (14,500 rpm) for 30 min at r.t. and the supernatant was subsequently collected. Upon evaporation of the solvents, the resulting dry, pale-yellow residue was dissolved in water containing 0.1 % TFA.
The dissolved solution was analysed via analytical RP HPLC and the quantity of the peptide was expressed as a percentage relative to the peptide peak area obtained at time zero (i.e. 100% peptide amount at t = 0 h). A scatterplot graph representing percentage of peptide versus time was generated.

[4] = test system: gap junctions; conditions: ref Kim et al., 2017b; cited from earlier work

CC(C)C[C@H](NC(=O)[C@H](Cc1ccccc1)NC(=O)[C@H](CS)NC(=O)[C@H](CC(=O)O)NC(=O)[C@@H](N)C(C)C)C(=O)N[C@@H](CO)C(=O)N[C@@H](CCCNC(=N)N)C(=O)N1CCC[C@H]1C(=O)N[C@H](C(=O)N[C@@H](CCC(=O)O)C(=O)N[C@H](CCCCN)C(=O)N[C@H](C(=O)O)[C@@H](C)O)[C@@H](C)O [Peptide 9, H2N-VDCFLSRPTEkT-CO2H] (H-VDCFLSRPTE[dK]T-OH)
LY dye spread compared to peptide5 (result in words) [1]: not statistically different from peptide5 | LY dye spread (number of LY-positive cells) as percentage of untreated control [1]: 74.7 ± 10.4%

CC1(C)[C@@H](OC(=O)CCC(=O)O)CC[C@]2(C)[C@H]3C(=O)C=C4[C@@H]5C[C@@](C)(C(=O)O)CC[C@]5(C)CC[C@@]4(C)[C@]3(C)CC[C@@H]12 [Cbx, carbenoxolone, reference compound]
LY dye spread (number of LY-positive cells) as percentage of untreated control [1]: 16.2 ± 1.1%

H2N-VDCFLSRPTEKT-CH 2 OH (H-VDCFLSRPTEKT-CH2OH) [Peptide 15]
LY dye spread compared to peptide5 (result in words) [1]: significantly increased dye spread relative to peptide5 (1)

CH 3 CH 2 OCO-NH-VDCFLSRPTEKT-CO2H (Ethoxycarbonyl-VDCFLSRPTEKT-OH) [Peptide 2]
ATP release compared to HAIR control (result in words) [2]: did not reduce ATP release compared to HAIR control | LY dye spread compared to peptide5 (result in words) [1]: significantly increased dye spread relative to peptide5 (1)

CC(C)C[C@@H]1NC(=O)[C@H](Cc2ccccc2)NC(=O)[C@H](CS)NC(=O)[C@H](CC(=O)O)NC(=O)[C@H](C(C)C)NC(=O)[C@@H](N)CC=CC[C@@H](C(=O)O)NC(=O)[C@H]([C@@H](C)O)NC(=O)[C@H](CCCCN)NC(=O)[C@H](CCC(=O)O)NC(=O)[C@H]([C@@H](C)O)NC(=O)[C@@H]2CCCN2C(=O)[C@H](CCCNC(=N)N)NC(=O)[C@H](CO)NC1=O [Peptide 39] (H-[AllylGly]VDCFLSRPTEKT[AllylGly]-OH; staple 1-14)
stability in human serum (result in words) [3]: good stability over 48 h; also recorded: the most stable in human serum

N 3 -VDCFLSRPTEKT-CO2H (N3-VDCFLSRPTEKT-OH) [Peptide 6]
ATP release compared to HAIR control (result in words) [2]: complete lack of activity; also recorded: did not reduce ATP release compared to HAIR control | ATP release compared to peptide5 (result in words) [2]: significantly increased compared to peptide5 (1) | LY dye spread compared to peptide5 (result in words) [1]: significantly increased dye spread relative to peptide5 (1)

SRPTEKT [a truncated peptide5]
gap junction inhibition compared with peptide5 (result in words) [4]: equally effective as a gap junction inhibitor

CH 3 CH 2 CH 2 CO-NH-VDCFLSRPTEKT-CO2H (Butyryl-VDCFLSRPTEKT-OH) [Peptide 5]
ATP release over untreated HAIR controls [2]: 57.3 ± 12.4% | ATP release compared to peptide5 (result in words) [2]: equaling the efficacy of peptide5 (1)

(CH 3 ) 2 CH 2 CH 2 OCO-NH-VDCFLSRPTEKT-CO2H (isopentyloxycarbonyl-VDCFLSRPTEKT-OH) [Peptide 3]
ATP release over untreated HAIR controls [2]: 52.6 ± 1.3% | ATP release compared to peptide5 (result in words) [2]: equaling the efficacy of peptide5 (1)

CC(C)C[C@H](NC(=O)[C@H](Cc1ccccc1)NC(=O)[C@H](CS)NC(=O)[C@H](CC(=O)O)NC(=O)[C@@H](N)C(C)C)C(=O)N[C@@H](CO)C(=O)N[C@H](CCCNC(=N)N)C(=O)N1CCC[C@H]1C(=O)N[C@H](C(=O)N[C@@H](CCC(=O)O)C(=O)N[C@@H](CCCCN)C(=O)N[C@H](C(=O)O)[C@@H](C)O)[C@@H](C)O [Peptide 10, H2N-VDCFLSrPTEKT-CO2H] (H-VDCFLS[dR]PTEKT-OH)
ATP release compared to HAIR control (result in words) [2]: complete lack of activity | ATP release compared to peptide5 (result in words) [2]: significantly increased compared to peptide5 (1) | LY dye spread / gap junction inhibition compared to control (result in words) [1]: did not reduce the degree of dye spread compared to control | LY dye spread compared to peptide5 (result in words) [1]: significantly increased compared to peptide5 (1)

PhCO-NH-VDCFLSRPTEKT-CO2H (Bz-VDCFLSRPTEKT-OH) [Peptide 4]
ATP release compared to HAIR control (result in words) [2]: did not reduce ATP release compared to HAIR control | LY dye spread compared to peptide5 (result in words) [1]: significantly increased dye spread relative to peptide5 (1)

CH 3 CH 2 CH 2 CO-NH-VDCFLSRPTEKT-CONH 2 (Butyryl-VDCFLSRPTEKT-NH2) [Peptide 14]
LY dye spread compared to peptide5 (result in words) [1]: significantly increased dye spread relative to peptide5 (1)

CH 3 CH 2 OCO-NH-VDCFLSRPTEKT-CONH 2 (Ethoxycarbonyl-VDCFLSRPTEKT-NH2) [Peptide 11]
LY dye spread compared to peptide5 (result in words) [1]: significantly increased dye spread relative to peptide5 (1)

CC(C)C[C@@H]1NC(=O)[C@H](Cc2ccccc2)NC(=O)[C@H](CS)NC(=O)[C@H](CC(=O)O)NC(=O)[C@H](C(C)C)NC(=O)[C@@H](N)CC=CC[C@@H](C(=O)N[C@H](C(=O)O)[C@@H](C)O)NC(=O)[C@H](CCC(=O)O)NC(=O)[C@H]([C@@H](C)O)NC(=O)[C@@H]2CCCN2C(=O)[C@H](CCCNC(=N)N)NC(=O)[C@H](CO)NC1=O [Peptide 42] (H-[AllylGly]VDCFLSRPTE[AllylGly]T-OH; staple 1-12)
stability in human serum (result in words) [3]: extremely resistant to enzymatic degradation; also recorded: the most stable in human serum | remaining at 48 h, 200 µM ([3]; human, serum): ~90%
